Data as given in patent US6706740B2, “Fungicidal heterocyclic aromatic amides and their compositions, methods of use and preparation” (Dow AgroSciences LLC, priority 1999, dated 2004).

The molecules below were run on Ustilago maydis (USTIMA) (assay: microbe, parasite or virus in culture). Details: Mycosarcoma maydis, read-out: USTIMA in vitro Growth Inhibition.
Type: cell-based
In the case of COCCCc1ccc2c(c1)OC(C)C(NC(=O)c1nccc(OC)c1O)C2=O (centres unmarked) [Compound 322], the inhibition at 25 ppm is reported as under 80%.
For O=C(Nc1cccc(Oc2ccc(C(F)(F)F)cc2)c1)c1nc(Br)ccc1O [Compound 496], the inhibition at 25 ppm was under 80%.
COc1ccnc(C(=O)N[C@@H]2C[C@@H](O[Si](C)(C)C(C)(C)C)O[C@@H](C)[C@@H]2OCc2ccccc2)c1O [Compound 327] was tested, and the inhibition at 25 ppm was under 80%.
COc1ccnc(C(=O)N[C@H]2CC3CC2[C@@H](COCc2cccc(C(F)(F)F)c2)C3)c1O (some centres unmarked) [Compound 295] was tested, and the inhibition at 25 ppm was under 80%.

Each molecule was assayed on Rhizoctonia solani (RHIZSO) (assay: microbe, parasite or virus in culture). Details: Rhizoctonia solani, read-out: RHIZSO in vitro Growth Inhibition.
Type: cell-based
For COCCCc1ccc2c(c1)OC(C)C(NC(=O)c1nccc(OC)c1O)C2=O (centres unmarked) [Compound 322], the inhibition at 25 ppm was over 80%.
O=C(Nc1cccc(Oc2ccc(C(F)(F)F)cc2)c1)c1nc(Br)ccc1O [Compound 496] gave an inhibition at 25 ppm of under 80%.
COc1ccnc(C(=O)N[C@@H]2C[C@@H](O[Si](C)(C)C(C)(C)C)O[C@@H](C)[C@@H]2OCc2ccccc2)c1O [Compound 327] showed an inhibition at 25 ppm of under 80%.
COc1ccnc(C(=O)N[C@H]2CC3CC2[C@@H](COCc2cccc(C(F)(F)F)c2)C3)c1O (some centres unmarked) [Compound 295] was tested, and the inhibition at 25 ppm was over 80%.

The molecules below were run on Magnaporthe grisea (Pyricularia oryzae—PYRIOR) (assay: microbe, parasite or virus in culture). Details: Pyricularia oryzae, read-out: PYRIOR in vitro Growth Inhibition.
Type: cell-based
In the case of COCCCc1ccc2c(c1)OC(C)C(NC(=O)c1nccc(OC)c1O)C2=O (centres unmarked) [Compound 322], the inhibition at 25 ppm is reported as under 80%.
For O=C(Nc1cccc(Oc2ccc(C(F)(F)F)cc2)c1)c1nc(Br)ccc1O [Compound 496], the inhibition at 25 ppm was under 80%.
COc1ccnc(C(=O)N[C@@H]2C[C@@H](O[Si](C)(C)C(C)(C)C)O[C@@H](C)[C@@H]2OCc2ccccc2)c1O [Compound 327] gave an inhibition at 25 ppm of under 80%.
For COc1ccnc(C(=O)N[C@H]2CC3CC2[C@@H](COCc2cccc(C(F)(F)F)c2)C3)c1O (some centres unmarked) [Compound 295], the inhibition at 25 ppm was over 80%.

Each molecule was assayed on Puccinia recondita—PUCCRT (assay: Brown Rust of Wheat, in vivo whole plant, 24 Hour Protectant). Details: Puccinia; 100 ppm spray, 24 hour protectant, wheat; control of fungal infection vs untreated plants; read-out: PUCCRT in vivo 1 Day Protectant.
Molecule COCCCc1ccc2c(c1)OC(C)C(NC(=O)c1nccc(OC)c1O)C2=O (centres unmarked) [Compound 322] has a pest or weed control at 100 ppm of 25 to 74%.
For COc1ccnc(C(=O)N[C@H]2CC3CC2[C@@H](COCc2cccc(C(F)(F)F)c2)C3)c1O (some centres unmarked) [Compound 295], the pest or weed control at 100 ppm was 25 to 74%.

Same assay, conditions: Puccinia; 100 ppm spray, wheat, 24 hour protectant; control of fungal infection vs untreated plants; read-out: PUCCRT in vivo 1 Day Protectant
COc1ccnc(C(=O)N[C@@H]2C[C@@H](O[Si](C)(C)C(C)(C)C)O[C@@H](C)[C@@H]2OCc2ccccc2)c1O [Compound 327] gave a pest or weed control at 100 ppm of under 25%.

Same assay, conditions: Puccinia; wheat plants sprayed at 100 ppm, inoculated after 24 hours; control of fungal infection vs untreated plants; read-out: PUCCRT in vivo 1 Day Protectant
O=C(Nc1cccc(Oc2ccc(C(F)(F)F)cc2)c1)c1nc(Br)ccc1O [Compound 496] showed a pest or weed control at 100 ppm of 25 to 74%.

What follows are molecules tested on Phytophthora infestans (PHYTIN) (assay: microbe, parasite or virus in culture). Details: Phytophthora infestans, read-out: PHYTIN in vitro Growth Inhibition.
Type: cell-based
COCCCc1ccc2c(c1)OC(C)C(NC(=O)c1nccc(OC)c1O)C2=O (centres unmarked) [Compound 322] showed an inhibition at 25 ppm of under 80%.
O=C(Nc1cccc(Oc2ccc(C(F)(F)F)cc2)c1)c1nc(Br)ccc1O [Compound 496] gave an inhibition at 25 ppm of under 80%.
With COc1ccnc(C(=O)N[C@@H]2C[C@@H](O[Si](C)(C)C(C)(C)C)O[C@@H](C)[C@@H]2OCc2ccccc2)c1O [Compound 327] the inhibition at 25 ppm was under 80%.
With COc1ccnc(C(=O)N[C@H]2CC3CC2[C@@H](COCc2cccc(C(F)(F)F)c2)C3)c1O (some centres unmarked) [Compound 295] the inhibition at 25 ppm was under 80%.

What follows are molecules tested on Leptosphaeria nodorum—LEPTNO (assay: Glume Blotch of Wheat, in vivo whole plant, 24 Hour Protectant). Details: Leptosphaeria; 100 ppm spray, 24 hour protectant, wheat; control of fungal infection vs untreated plants; read-out: LEPTNO in vivo 1 Day Protectant.
COCCCc1ccc2c(c1)OC(C)C(NC(=O)c1nccc(OC)c1O)C2=O (centres unmarked) [Compound 322] gave a pest or weed control at 100 ppm of 25 to 74%.
COc1ccnc(C(=O)N[C@H]2CC3CC2[C@@H](COCc2cccc(C(F)(F)F)c2)C3)c1O (some centres unmarked) [Compound 295] showed a pest or weed control at 100 ppm of 25 to 74%.

Same assay, conditions: Leptosphaeria; 100 ppm spray, wheat, 24 hour protectant; control of fungal infection vs untreated plants; read-out: LEPTNO in vivo 1 Day Protectant
With COc1ccnc(C(=O)N[C@@H]2C[C@@H](O[Si](C)(C)C(C)(C)C)O[C@@H](C)[C@@H]2OCc2ccccc2)c1O [Compound 327] the pest or weed control at 100 ppm was 25 to 74%.

Same assay, conditions: Leptosphaeria; wheat plants sprayed at 100 ppm, inoculated after 24 hours; control of fungal infection vs untreated plants; read-out: LEPTNO in vivo 1 Day Protectant
O=C(Nc1cccc(Oc2ccc(C(F)(F)F)cc2)c1)c1nc(Br)ccc1O [Compound 496] was tested, and the pest or weed control at 100 ppm was under 25%.

Each molecule was assayed on Stagonospora nodorum (Leptosphaeria nodorum—LEPTNO) (assay: In vitro fungal growth inhibition, Stagonospora nodorum (LEPTNO)). Details: Leptosphaeria, read-out: LEPTNO in vitro Growth Inhibition.
Type: cell-based
In the case of COc1ccnc(C(=O)N[C@@H]2C[C@@H](O[Si](C)(C)C(C)(C)C)O[C@@H](C)[C@@H]2OCc2ccccc2)c1O [Compound 327], the inhibition at 25 ppm is reported as under 80%.

Same assay, conditions: Leptosphaeria; 25 ppm in growth medium; read-out: LEPTNO in vitro Growth Inhibition
Molecule COCCCc1ccc2c(c1)OC(C)C(NC(=O)c1nccc(OC)c1O)C2=O (centres unmarked) [Compound 322] has an inhibition at 25 ppm of over 80%.
For COc1ccnc(C(=O)N[C@H]2CC3CC2[C@@H](COCc2cccc(C(F)(F)F)c2)C3)c1O (some centres unmarked) [Compound 295], the inhibition at 25 ppm was over 80%.

Same assay, conditions: Leptosphaeria; 25 ppm in the growth medium; read-out: LEPTNO in vitro Growth Inhibition
With O=C(Nc1cccc(Oc2ccc(C(F)(F)F)cc2)c1)c1nc(Br)ccc1O [Compound 496] the inhibition at 25 ppm was under 80%.

Each molecule was assayed on Phytophthora infestans—PHYTIN (assay: whole plant or invertebrate). Details: Phytophthora, in Solanum lycopersicum, 24 h, read-out: PHYTIN in vivo 1 Day Protectant.
Type: in vivo
Molecule COCCCc1ccc2c(c1)OC(C)C(NC(=O)c1nccc(OC)c1O)C2=O (centres unmarked) [Compound 322] has a pest or weed control at 100 ppm of under 25%.
O=C(Nc1cccc(Oc2ccc(C(F)(F)F)cc2)c1)c1nc(Br)ccc1O [Compound 496] showed a pest or weed control at 100 ppm of under 25%.
With COc1ccnc(C(=O)N[C@@H]2C[C@@H](O[Si](C)(C)C(C)(C)C)O[C@@H](C)[C@@H]2OCc2ccccc2)c1O [Compound 327] the pest or weed control at 100 ppm was 25 to 74%.
In the case of COc1ccnc(C(=O)N[C@H]2CC3CC2[C@@H](COCc2cccc(C(F)(F)F)c2)C3)c1O (some centres unmarked) [Compound 295], the pest or weed control at 100 ppm is reported as under 25%.

The molecules below were run on Mycosphaerella graminicola (Septoria tritici—SEPTTR) (assay: In vitro fungal growth inhibition, Mycosphaerella graminicola (SEPTTR)). Details: Zymoseptoria tritici, read-out: SEPTTR in vitro Growth Inhibition.
Type: cell-based
Work on COc1ccnc(C(=O)N[C@@H]2C[C@@H](O[Si](C)(C)C(C)(C)C)O[C@@H](C)[C@@H]2OCc2ccccc2)c1O [Compound 327] yielded an inhibition at 25 ppm of under 80%.

Same assay, conditions: Zymoseptoria tritici; 25 ppm in growth medium; read-out: SEPTTR in vitro Growth Inhibition
COCCCc1ccc2c(c1)OC(C)C(NC(=O)c1nccc(OC)c1O)C2=O (centres unmarked) [Compound 322] showed an inhibition at 25 ppm of under 80%.
COc1ccnc(C(=O)N[C@H]2CC3CC2[C@@H](COCc2cccc(C(F)(F)F)c2)C3)c1O (some centres unmarked) [Compound 295] showed an inhibition at 25 ppm of over 80%.

Same assay, conditions: Zymoseptoria tritici; 25 ppm in the growth medium; read-out: SEPTTR in vitro Growth Inhibition
Molecule O=C(Nc1cccc(Oc2ccc(C(F)(F)F)cc2)c1)c1nc(Br)ccc1O [Compound 496] has an inhibition at 25 ppm of under 80%.

Each molecule was assayed on Erysiphe graminis—ERYSGT (assay: Powdery Mildew of Wheat, in vivo whole plant, 24 Hour Protectant). Details: Erysiphe; 100 ppm spray, 24 hour protectant, wheat; control of fungal infection vs untreated plants; read-out: ERYSGT in vivo 1 Day Protectant.
Work on COCCCc1ccc2c(c1)OC(C)C(NC(=O)c1nccc(OC)c1O)C2=O (centres unmarked) [Compound 322] yielded a pest or weed control at 100 ppm of 25 to 74%.
COc1ccnc(C(=O)N[C@H]2CC3CC2[C@@H](COCc2cccc(C(F)(F)F)c2)C3)c1O (some centres unmarked) [Compound 295] was tested, and the pest or weed control at 100 ppm was under 25%.

Same assay, conditions: Erysiphe; 100 ppm spray, wheat, 24 hour protectant; control of fungal infection vs untreated plants; read-out: ERYSGT in vivo 1 Day Protectant
Work on COc1ccnc(C(=O)N[C@@H]2C[C@@H](O[Si](C)(C)C(C)(C)C)O[C@@H](C)[C@@H]2OCc2ccccc2)c1O [Compound 327] yielded a pest or weed control at 100 ppm of under 25%.

Same assay, conditions: Erysiphe; wheat plants sprayed at 100 ppm, inoculated after 24 hours; control of fungal infection vs untreated plants; read-out: ERYSGT in vivo 1 Day Protectant
O=C(Nc1cccc(Oc2ccc(C(F)(F)F)cc2)c1)c1nc(Br)ccc1O [Compound 496] was tested, and the pest or weed control at 100 ppm was under 25%.

The molecules below were run on Septoria tritici—SEPTTR (assay: Leaf Blotch of Wheat, in vivo whole plant, 24 Hour Protectant). Details: 100 ppm spray, 24 hour protectant, wheat; control of fungal infection vs untreated plants.
For COc1ccnc(C(=O)N[C@H]2CC3CC2[C@@H](COCc2cccc(C(F)(F)F)c2)C3)c1O (some centres unmarked) [Compound 295], the “SEPTTR in vivo 1 Day Protectant” value was “+ +”.

Same assay, conditions: 100 ppm spray, wheat, 24 hour protectant; control of fungal infection vs untreated plants
For COc1ccnc(C(=O)N[C@@H]2C[C@@H](O[Si](C)(C)C(C)(C)C)O[C@@H](C)[C@@H]2OCc2ccccc2)c1O [Compound 327], the “SEPTTR in vivo 1 Day Protectant” value was “+ +”.

Same assay, conditions: Zymoseptoria tritici, 24 h, 100 ppm spray, 24 hour protectant, wheat; control of fungal infection vs untreated plants; read-out: SEPTTR in vivo 1 Day Protectant
Work on COCCCc1ccc2c(c1)OC(C)C(NC(=O)c1nccc(OC)c1O)C2=O (centres unmarked) [Compound 322] yielded a pest or weed control at 100 ppm of 25 to 74%.

Same assay, conditions: Zymoseptoria tritici, 24 h, wheat plants sprayed at 100 ppm, inoculated after 24 hours; control of fungal infection vs untreated plants; read-out: SEPTTR in vivo 1 Day Protectant
With O=C(Nc1cccc(Oc2ccc(C(F)(F)F)cc2)c1)c1nc(Br)ccc1O [Compound 496] the pest or weed control at 100 ppm was 25 to 74%.
